The text below walks through data of publication PMC5841205, “Pharmacological targeting of apelin impairs glioblastoma growth” (Brain, 2017).

Test [1] relates to GSCs (glioblastoma patient-derived cells with stem-like properties). The experiment in a line: Tumoursphere formation, APLNR antagonists and TMZ. Type of test: cell-based, human. The following applies: GSC#1, TMZ 10–100 μM, Day 5. As for the experimental part:
(§1) To test the tumoursphere formation, GSCs (100 cells/µl) were plated in triplicate in indicated media as previously described ([Harford-Wright et al., 2016]). Cells were manually dissociated each day and a single cell suspension maintained until Day 5. Tumourspheres were counted in five random fields of view, and the mean from the triplicate of each condition calculated from three independent experiments.
(§2) Figure 4 Pharmacological inhibition of APLNR impairs the effects of the endothelial secretome on GSCs by inhibition of GSK3β signalling. (A) Molecular structure and primary sequence of the competitive APLNR antagonist MM54. […] (J) Reverse protein phase array (RPPA) from the TCGA database were analysed in low and high APLNR expressing glioblastoma samples. *P < 0.05; **P < 0.01 compared to the low APLNR condition. […] (N) GSC #1 received sic (control) or GSK3B targeting siRNA (siGSK3B) and tumoursphere per field of view was quantified in MF supplemented with purified apelin (APLN, 1 μM). *P < 0.05 compared to the sic MF condition.
Figure 5 Pharmacological inhibition of APLNR by MM54 impairs the in vitro expansion of temozolomide-resistant GSCs. (A) Cell viability following treatment with DMSO, MM54 (2, 20 and 100 μM) or temozolomide (TMZ, 50 μM) was measured using UptiBlue in different cell types for 3 days. […]

Another test relates to GSCs #1, #4, #9, and #12. Nature of the test: Cell viability (UptiBlue), GSCs. Type of test: cell-based, human. To be noted: TMZ 100 μM, GSCs #1, #4 and #9, serum-containing medium, 3 days. As for the experimental part:
(§3) Cell viability in response to MM54 was tested using the UptiBlue reagent (Interchim), a fluorometric/colorimetric growth indicator based on the detection of metabolic activity. Briefly, cells were seeded at a density of 2 × 10^3 per well, UptiBlue added at a concentration of 10% v/v and cells maintained at 37°C 5% CO2 until analysis. Absorbance was measured at Day 5 following treatment at 570 and 600 nm on a FLUOStar OPTIMA (BMG Labtech) plate reader, and the percentage of cell viability calculated according to the manufacturer’s instructions.
(§4) Figure 5 Pharmacological inhibition of APLNR by MM54 impairs the in vitro expansion of temozolomide-resistant GSCs. (A) Cell viability following treatment with DMSO, MM54 (2, 20 and 100 μM) or temozolomide (TMZ, 50 μM) was measured using UptiBlue in different cell types for 3 days. […] (B and C) Cell viability following treatment with DMSO or TMZ (100 μM) was measured using UptiBlue in GSCs #1, #4, #9, and #12 for 3 days. […] (D) GSC#1 viability was assessed following combined treatment with MM54 (0.2–20 μM) and TMZ (constant ratios TMZ:MM54 2.5:1, 5:1, and 10:1) in NS and human brain endothelial cell-conditioned medium (EC-CM) conditions. (E and F) Tumoursphere per field of view (fov) and ALDH activity were assessed in response to MM54 (0.2–100 μM) or TMZ (10–100 μM) treatment at Day 5. […]

The subject of test [2] is U87 glioblastoma cell line. The experiment in a line: Cell viability (UptiBlue), U87. Type of test: cell-based, human. As for the experimental part:
as §3, §4

Test [3] has as its system LN229 glioblastoma cell line. Nature of the test: Cell viability (UptiBlue), LN229. Type of test: cell-based, human. To be noted: TMZ. Here is the method:
as §3, §4

A further test relates to GSC#1 ALDH activity. The experiment in a line: ALDH activity (ALDEFLUOR flow cytometry). Type of test: cell-based, human. As for the experimental part:
Analysis of aldehyde dehydrogenase (ALDH) activity was performed using the ALDEFLUOR™ assay kit (Stem Cell Technologies). Briefly, cells were incubated with ALDEFLUOR alone or in combination with an ALDH activity inhibitor (DAEB) at 37°C for 45 min. This flow cytometry-based staining allows monitoring ALDH activity in stem, progenitor and cancer precursor cells. The ALDH activity is considered positive in comparison to cells incubated with DEAB reagent.
(§5) Figure 4 Pharmacological inhibition of APLNR impairs the effects of the endothelial secretome on GSCs by inhibition of GSK3β signalling. (A) Molecular structure and primary sequence of the competitive APLNR antagonist MM54. […] (C) The percentage of calcium flux inhibition following MM54 treatment (0.4–10 μM) in the G-protein coupled receptor hits. (D) Tumoursphere per field of view (fov) in response to MM54 (0–4 μM) treatment in GSC#1 maintained in human brain endothelial cell-conditioned medium (EC-CM) and apelin-supplemented mitogen-free MF media (APLN, 1 μM) for 5 days. *P < 0.05 compared to EC-CM DMSO control, ^#P < 0.05 compared to apelin DMSO control. […] (F) Stem cell frequency in apelin supplemented media in response to MM54 (2 μM) in GSCs #1, #4, #9 and #12. *P < 0.05 compared to the vehicle condition. (G) Flow cytometry analysis of the percentage of ALDH positive and negative GSC #1 in response to 2, 10 or 20 μM of MM54 at Day 5. ALDH activity corresponds to the percentage of cells that contains ALDH activity (positive) or not (negative), normalized to the vehicle condition. *P < 0.05; ***P < 0.001 compared to the vehicle condition. […] (J) Reverse protein phase array (RPPA) from the TCGA database were analysed in low and high APLNR expressing glioblastoma samples. *P < 0.05; **P < 0.01 compared to the low APLNR condition. […] (N) GSC #1 received sic (control) or GSK3B targeting siRNA (siGSK3B) and tumoursphere per field of view was quantified in MF supplemented with purified apelin (APLN, 1 μM). *P < 0.05 compared to the sic MF condition.
as §4
Background: Flow cytometry measures light scatter and fluorescence of single cells or particles in a stream.

Test [4] relates to GSC#1. Nature of the test: Tumoursphere formation, tideglusib. Type of test: cell-based, human. The following applies: GSC#1, tideglusib 2.5 μM with apelin 1 μM. Here is the method:
as §1
as §2, with “MM54. […] (C) The percentage of calcium flux inhibition following MM54 treatment (0.4–10 μM) in the G-protein coupled receptor hits.” for “MM54.”

Another test relates to GSC #1. The experiment in a line: Limiting dilution assay, tideglusib. Type of test: cell-based, human. The following applies: GSC#1, tideglusib 2.5 μM with apelin 1 μM. Here is the method:
as §5, with “5.” for “5. ALDH activity corresponds to the percentage of cells that contains ALDH activity (positive) or not (negative), normalized to the vehicle condition. *P < 0.05; ***P < 0.001 compared to the vehicle condition.”

The subject of test [5] is GSC#1. The following applies: GSC#1, synthetic apelin 1 μM added to MF. As for the experimental part: (§6) (C) Confocal analysis of NESTIN (green), SOX2 (red) and nuclei (DAPI, blue) in GSC#1 grown in NS, MF, human brain endothelial cell-conditioned medium (EC-CM) or MF+APLN (1 μM). Scale bars = 20 µm. (D) Linear regression plot of in vitro limiting dilution assay (LDA) for GSC#1 in NS, EC-CM, MF, and MF+APLN (1 μM). Data are representative of n = 2. […] (F) Stem cell frequency in GSCs #1, #2, #4, #9 and #12 in response to MF and APLN conditions. […] (H) EC received non-silencing RNA (sic) or siRNA targeting APLN (siAPLN) and APLN knockdown efficiency assessed by RT-PCR and ELISA. […] (K) FACS analysis of the proliferation marker Ki67 in GSCs #4 and #9 in NS and MF+APLN conditions. All panels are representative of n = 3, unless otherwise specified.

The subject of test [6] is GSCs (glioblastoma patient-derived cells with stem-like properties). As for the experimental part: as §6
The subject of another test is GSCs #4 and #9. The following applies: GSCs #4 and #9, apelin-supplemented MF. As for the experimental part:
as §6

The test system of test [7] is GSCs (glioblastoma patient-derived cells with stem-like properties). Nature of the test: Tumoursphere formation, apelin peptides. Type of test: cell-based, human. To be noted: for number of tumourspheres: 1 μM apelin peptide in mitogen-free medium (MF), GSCs #1, #9, #12 and #13, vs MF, 5 days.
Source text: Glioblastoma patient-derived cells with stem-like properties (GSCs) were isolated as previously described ([Treps et al., 2016]). Briefly, tumours were dissociated using the MACsDissociator (Miltenyi) and each GSC characterized for their self-renewal capabilities, cell surface antigens, expression of stemness markers, their ability to differentiate, and to initiate tumour formation (Supplementary Table 1). GSCs 1–16 were maintained as spheres in NS medium (DMEM-F12, with N2, G5 and B27 supplements, GlutaMAX™ and antibiotics, Life Technologies). To induce differentiation in GSCs, the three supplements were omitted and 10% foetal bovine serum added to the media.
as §1, §6

For another test, the system named is endothelial cells. The following applies: ref Kleinz and Davenport, 2005; cited from earlier work. From the text:
Moreover, apelin has been implicated in physiological and pathological angiogenesis ([Kaelin et al., 2007]). […] In keeping with this, a recent study proposed apelin as a marker for monitoring tumour vessel normalization and response to anti-angiogenic therapy ([Zhang et al., 2016]; [Zuurbier et al., 2017]).

With `Cn1nnc2c(C(N)=O)ncn2c1=O` [TMZ, Temozolomide], the “concentrations needed for tumoursphere impairment comparable to MM54” value in [1] is “required much higher concentrations to achieve comparable results”. Further, the “viability, GSCs grown as adherent differentiated cells” value in the test with GSCs #1, #4, #9, and #12 is reported as “reduces the viability”. Further, the “viability, U87” value in [2] (TMZ) is reported as “significantly reduced the viability”. In test [2] (TMZ 100 μM, serum-containing medium, 3 days), the “viability, U87 grown as adherent differentiated cells” value was “reduces the viability”. Moreover, in [3], the “viability, LN229” value is reported as “significantly reduced the viability”. In addition, in the test on GSC#1 ALDH activity (GSC#1, TMZ 10–100 μM, Day 5), the “concentrations needed for ALDH impairment comparable to MM54” value is listed as “required much higher concentrations to achieve comparable results”. In the test on GSC#1 ALDH activity (TMZ alone), the “activity of the stem marker ALDH, TMZ alone” value is on record as “does not alter the activity of the stem marker ALDH”. Also, the “potentiation of MM54 effect on ALDH activity” value with GSC#1 ALDH activity (TMZ with MM54 suboptimal dose <2 μM, MM54:TMZ 1:2.5, 1:5, 1:10) was “significantly potentiates the effects of MM54”. Besides, in the test with GSC#1 ALDH activity (TMZ with suboptimal dose of MM54), the “percentage of ALDH-positive cells, TMZ combined with suboptimal dose of MM54” value was “profound alterations in the percentage of ALDH-positive cells”.

For the compound `O=c1sn(-c2cccc3ccccc23)c(=O)n1Cc1ccccc1` [tideglusib], the “effect on apelin-mediated increase in tumourspheres” value with GSC#1 [4] was “apelin was less potent at increasing tumourspheres and self-renewal”. Also, the “effect on apelin-mediated increase in self-renewal (LDA)” value in the test on GSC #1 is “apelin was less potent at increasing tumourspheres and self-renewal”.

On to apelin-13, for which, in the test on GSC#1 [5], the “rescue of NESTIN and SOX2 expression and ability to form tumourspheres” value was “rescued by the addition of synthetic apelin”. For the same compound, the “frequency of colony-forming cells” value in [6] (GSC#1, apelin 1 μM in MF vs MF, two weeks, n = 2) was “increase in the frequency of colony-forming cells”. The “frequency of stem cells” value in test [6] (GSCs #1, #2, #4, #9 and #12, apelin vs MF) was “increased the frequency of stem cells”. Besides, the “proliferation (Ki67) of GSCs” value with GSCs #4 and #9 is reported as “did not observe any obvious effect”. The number of tumourspheres result in [7] (n = 3) is “increased the number of tumourspheres compared to mitogen-free media”. Besides, the “potency at sustaining GSCs (tumourspheres)” value in [7] (1 μM, compared among apelin-13, pyr-apelin-13 and apelin-36) is “most potent at sustaining GSCs”. Further, in test [7] (GSC#1, increasing apelin-13 concentrations in MF, n = 3), the “tumourspheres, increasing concentrations” value is “potent and sustained increase in tumourspheres from the lowest concentration”. The “stem properties of GSCs in APLN-depleted EC-CM” value in test [7] (GSC#1 in siAPLN EC-CM plus apelin 1 μM, tumoursphere and LDA) was “restored this effect”. The “ability of GSCs to expand as tumourspheres” value in [7] (panel of 16 patient-derived GSCs, apelin-supplemented MF vs MF, n = 3) was “significantly increased the ability of GSCs to expand as tumourspheres”. For the same compound, the “endothelial cell proliferation and vessel sprouting” value in the test on endothelial cells was “induces proliferation and vessel sprouting in endothelial cells”.

As for pyr-apelin-13, the number of tumourspheres result in test [7] (n = 3) is listed as “increased the number of tumourspheres compared to mitogen-free media”.
